Experimental data from patent US20190038714A1, “ANTI-INFLAMMATORY COMPOSITION COMPRISING CLAVASPIRIN PEPTIDE ANALOGUE AS EFFECTIVE INGREDIENT” (INDUSTRY-ACADEMIC COOPERATION FOUNDATION, CHOSUN UNIVERSITY, priority 2015, published 2019).
Ends that are not written are not given here.

Experiments:
[1] = Cytotoxicity in normal cell line (MTT); type: cell-based, human; conditions: human, HaCaT cells (keratinocyte cell line), HaCaT, 24 hours, MTT, read-out: Cell survival ability %; for viability at 24 h, 25 µM: peptide 25 μM; for viability at 24 h, 50 µM: peptide 50 μM; for viability at 24 h, 100 µM: peptide 100 μM; for viability at 24 h, 200 µM: peptide 200 μM; for viability at 24 h, 400 µM: peptide 400 μM
Description: (§1) To determine the cytotoxicity of the peptide produced by the method of Example 1 in normal cell line, toxicity was measured by using human keratinocyte forming cell line (HaCaT cell line, Dr. NE. Fusenig, Heidelberg, Germany).
(§2) Specifically, HaCaT cells which have been cultured in DMEM medium containing 10% FBS (Fetal Bovine Serum) were aliquoted in a 96-well plate (3×10^3 cells/well). […] After the culture, a reaction solution containing 5 mg/ml MTT (Thiazolyl Blue Tetrazolium Bromide) dissolved in physiological saline (PBS) was added in an amount of 20 μl to each well and allowed to react for 4 hours. After that, the supernatant was removed, and, by dissolving the formed MTT crystals by adding 200 μl of DMSO, the absorbance at 560 nm was measured to determine the cell survival ability.

S. aureus MRSA 1635 = conditions: 24 hours at 37° C.
S. aureus MRSA 4761 = conditions: 24 hours at 37° C.
S. aureus MRSA 3-359 = conditions: 24 hours at 37° C.
S. aureus MRSA 1870 = conditions: 24 hours at 37° C.
S. aureus MRSA 3511 = conditions: 24 hours at 37° C.
HaCaT cell line = assay: Cytotoxicity in normal cell line (MTT); type: cell-based, human; conditions: HaCaT cell line
Description: as §1, §2

skin of a hairless mouse = assay: Scanning electron microscopy of hairless mouse skin with induced dermatitis; type: in vivo; conditions: 200 μg/ml
Description: Skin of a 6-week old hairless mouse was treated with 100 μl of S. aureus MRSA 0027 (1×10^8 cells/ml) to induce inflammation. Thirty minutes later, the skin was further treated with CSP-4 peptide at 100 μg/ml or 200 μg/ml. From each of a mouse having induced inflammation further treated with the peptide, a mouse treated only with the peptide, and a mouse having induced inflammation, tissues were collected and washed using physiological saline (PBS). Then, the tissues were fixed for 24 hours at room temperature by using 4% PFA (paraformaldehyde). […] According to H&E staining and immunohistochemical method, a change in tissues and onset of an anti-inflammatory cytokine or TLR2 receptor was determined. […] Remaining liquids were removed by TBST buffer such that the tissues are not detached, and a secondary antibody linked with green fluorescence (Got anti-mouse IgG (HRP) LF-SA5001-conjugated) was allowed to bind thereto. Next, each tissue was determined by using a fluorescent microscope (I×71, Olympus, Japan).
From the mouse tissues which have been treated according to the method of above Example 8, a paraffin block was prepared. […] Next, a change in the tissues was determined by using scanning electron microscopy (SEM).

Substance: FLRFIGSVIHGIGHLVHHIGVAL-NH2 [Clavaspirin]
- viability at 24 h, 25 µM [1]: 15%
- viability at 24 h, 50 µM [1]: 3%
- viability at 24 h, 100 µM [1]: 1%
- viability at 24 h, 200 µM [1]: 1%
- viability at 24 h, 400 µM [1]: 0%
- MIC (S. aureus MRSA 1635): 16 µM
- MIC (S. aureus MRSA 4761): 32 µM
- MIC (S. aureus MRSA 3-359): 16 µM
- MIC (S. aureus MRSA 1870): 8 µM
- MIC (S. aureus MRSA 3511): 8 µM

Substance: FLRFIGSVKHGKGHLVHHIGVAL-NH2 [CSP-4]
- viability at 24 h, 25 µM [1]: 100%
- viability at 24 h, 50 µM [1]: 100%
- viability at 24 h, 100 µM [1]: 100%
- viability at 24 h, 200 µM [1]: 100%
- viability at 24 h, 400 µM [1]: 88%
- cytotoxicity in human keratinocyte forming cell line (HaCaT cell line): almost no cytotoxicity
- change in mouse skin (SEM), treated only with the peptide (skin of a hairless mouse): no change in mouse skin is induced
- MIC (S. aureus MRSA 1635): 8 µM
- MIC (S. aureus MRSA 4761): 8 µM
- MIC (S. aureus MRSA 3-359): 8 µM
- MIC (S. aureus MRSA 1870): 8 µM
- MIC (S. aureus MRSA 3511): 8 µM
